# Assay results: PubChem BioAssay AID2305 (GlaxoSmithKline (GSK), 2010)
# pIC50: −log10 of the molar value.
# Test system: P. falciparum 3D7 growth, pLDH absorbance
# Test: blood-stage malaria parasite growth potency – strain 3D7, dose response (AID 2305)
smiles,measurement,value
CC(C)CCCC(C)(C)NC[C@@H](O)[C@H](Cc1ccccc1)NC(=O)c1cc(NC(C)C)cc(N2CCCCS2(=O)=O)c1,pIC50,6.68
O=C(Nc1ccc(C(=O)Nc2ccc(C3=NCCN3)cc2)cc1)Nc1ccc(C2=NCCN2)cc1,pIC50,6.74
N[C@@H](CCN1CCC(c2cccc(O)c2)CC1)Cc1ccc(F)c(F)c1,pIC50,5.95
O=C(Nc1ccc(F)cc1)c1ccc(C(=O)NC2CCN(CC3CCCCC3)CC2)cc1,pIC50,6.27
CCN(CC)CCN(Cc1ccc(-c2ccc(C(F)(F)F)cc2)cc1)C(=O)Cn1cc(CCCCc2cccc(F)c2F)c(=O)c2ccccc21,pIC50,6.06
Oc1cc(-c2nc(C3(CNCc4ccc(Cl)cc4)CCCCC3)[nH]c2-c2ccncc2)ccc1Cl,pIC50,6.89
Cc1cc(C(=O)Nc2ccc3c(c2)CCN3C2CCN(Cc3cccc4cc[nH]c34)C2)no1 (stereo not drawn),pIC50,6.72
Cc1cc(NC(=O)c2ccco2)ccc1OC1CCN(Cc2ccccc2)CC1,pIC50,6.28
Cc1ccc(O)cc1Nc1ccnc2cc(-c3ccccn3)ccc12,pIC50,6.12
CCCCCCNC[C@@H](O)[C@H](Cc1ccccc1)NC(=O)c1cc(NCC)cc(N2CCCCS2(=O)=O)c1,pIC50,6.00
c1cncc(-c2cc(N3CCc4ccccc4C3)nc(-c3ccncc3)n2)c1,pIC50,7.40
COc1ccc(-c2cc(C(=O)N[C@@H](CC3CCCCC3)C(=O)NC3CCCc4ccccc43)ccc2O)cc1 (stereo partly drawn),pIC50,6.16
CCCCCc1cc(O)c2c3c(c(=O)oc2c1)CN(C)CC3,pIC50,6.92
COc1ccccc1N1CCN(C(C(=O)NCc2ccc3c(c2)OCO3)c2ccc3c(c2)OCCCO3)CC1 (stereo not drawn),pIC50,5.95
COc1cc(C(=O)N2CCOC(CCN3CCC[C@H]3C(=O)Nc3ccccc3)(c3ccc(Cl)c(Cl)c3)C2)cc(OC)c1OC (stereo partly drawn),pIC50,6.14
COc1ccc2nccc([C@@H](O)CN3CCC(NCc4cc5ccc(Cl)cc5[nH]4)CC3)c2c1,pIC50,6.92
CN1CC=C(c2c[nH]c3ccc(OCc4ccccc4)cc23)CC1,pIC50,6.14
CCCCCN1CCC(NC(=O)c2ccc(C(=O)Nc3ccc(C(C)C)cc3)cc2)CC1,pIC50,6.07
O=C(NCCc1ccccc1)N(Cc1ccc(-c2cccc(CN3CCNCC3)c2)cc1)C1CCN(Cc2ccccc2)CC1,pIC50,5.87
NC1CCN(c2nc(NCCCc3ccc(O)cc3)nc(NCc3cccc4ccccc34)n2)CC1,pIC50,6.14
CC(C)Cc1csc(NC(=O)C=Cc2ccco2)c1C(=O)O,pIC50,6.52
C=CCn1cc(C2CCN(CCCCNC(=O)c3sc(-c4ccc(C(F)(F)F)cc4)nc3CO)CC2)c2cc(OC)ccc21,pIC50,5.98
COc1ccc(N2C(N)=NC(N)=NC2(C)C)cc1OC,pIC50,6.51
CCCn1cnc2cc(C(=O)Nc3ccc(-c4cccc(CN(C)C)c4)cc3)ccc2c1=O,pIC50,6.03
O=C(Cc1cccnc1)Nc1cccc(-c2cccc(-c3nc4ccc(C(F)(F)F)cc4[nH]3)c2)c1,pIC50,6.17
Cc1cc(C)c2cc(CNCCCNc3nc4ccccc4[nH]3)[nH]c2c1,pIC50,6.11
O=C(Nc1ccc(Cl)cc1)Nc1cccc(-c2cccc(-c3nc4ccc(C(F)(F)F)cc4[nH]3)c2)c1,pIC50,6.64
CCCCCCN1CCC(NCc2ccc(Cl)cc2)CC1,pIC50,6.07
FC(F)(F)c1ccc2nc(-c3ccc(-c4ccc(CN5CCN(c6ccncc6)CC5)cc4)s3)[nH]c2c1,pIC50,6.82
Cc1cnc(N2CCN(CC3CCN(C)CC3)CC2)nc1Oc1ccc(-n2ccnc2)cc1,pIC50,6.14
c1ccc(CCNCc2ccc(-c3cccc(-c4nc5ccccc5[nH]4)c3)cc2)nc1,pIC50,6.21
Cc1cccc2[nH]c(-c3cccc(-c4ccc(NC(=O)Nc5ccc6c(c5)OCO6)cc4)c3)nc12,pIC50,6.85
COc1ccc(OCCCN2CCCCC2)cc1S(=O)(=O)c1ccc(OCc2ccc(C(F)(F)F)cc2)cc1,pIC50,6.00
COc1ccc(NC(=O)[C@H](CC(C)C)Nc2cc(C)nc(NCCc3cccs3)n2)cc1,pIC50,6.02
CCc1cn2c3c(cc(C(=O)N[C@@H](Cc4ccccc4)[C@H](O)CN[C@@H](C)CC)cc13)N(C)S(=O)(=O)CC2,pIC50,7.15
CN(C)CCOc1cc(NC(=O)Nc2ccc(-c3ccccc3)cc2)ccc1I,pIC50,6.22
Cc1[nH]c(-c2ccc(F)cc2)cc1C(=O)NC1CCN(Cc2ccccc2)CC1,pIC50,5.95
COc1cccc(C(=O)NC(C=Cc2ccccc2)c2cc(Cl)c3cccnc3c2O)c1 (stereo not drawn),pIC50,6.07
O=C(NC1CCN(CCCc2ccccc2)CC1)c1ccc(-c2cccc(C(F)(F)F)c2)s1,pIC50,6.05
c1nc2nc3c(c(Nc4ccc5c(c4)CCC5)n2n1)CCC3,pIC50,6.04
CC(C)N1CCC(NCc2ccc(-c3ccc(Cl)cc3)cc2)CC1,pIC50,6.19
CCN1CCC(N(Cc2ccc(-c3ccc(C(F)(F)F)cc3)cc2)C(=O)Cn2c(CCc3cccc(F)c3F)cc(=O)c3c2CCC3)CC1,pIC50,6.01
COc1ccc2nccc([C@@H](O)CN3CCC(NC(=O)/C=C/c4ccc5cc(C)[nH]c5c4)CC3)c2c1,pIC50,6.14
CN(C)CCCn1c(N)c(-c2nc3ccccc3[nH]2)c2nc(C#N)c(C#N)nc21,pIC50,6.23
O=S(=O)(NCCN1CCCC1)c1cccc(-c2ccc(CNCc3ccc(F)cc3)cc2)c1,pIC50,6.64
Cc1ccc(Oc2ncccc2C(=O)Nc2cccc3cccnc23)c(C)c1,pIC50,6.66
COc1cc(CN2CCC(C(=O)Nc3ccc(-c4cccc(C)c4)cc3)CC2)ccc1O,pIC50,5.95
COc1cc(NC(=O)c2cccs2)c(OC)cc1NC(=O)Nc1cccc(Cl)c1,pIC50,6.00
